One test has as its target T1, human receptor GPR17 (Homo sapiens, UniProt Q13304).
T1 construct: expressed in transfected cells; host or cells: human 1321N1 astrocytoma cells, calcium phosphate transfection with pcDNA3.1; plasma membranes used
The test is described as follows: [35S]GTPγS binding assay on membranes of 1321N1 cells transfected with human GPR17. Particulars: for EC50 / Emax: [35S]GTPγS binding; for EC50: 1321N1 cells expressing human GPR17, mean±SEM of three experiments; for Emax: LTC4 at 100 nM, in % (unit assumed); for % Emax vs standard: efficacy relative to LTC4 set to 100%; for effect of antagonist on concentration-response curve of the compound: in presence of cangrelor or montelukast. In kind it is biochemical. How it is done:
A—The compounds according to the invention were evaluated for their functional activity on GPR17 using a well-known assay for GPCRs, the [^35S]GTPγS binding assay, which is based on the ability of the agonist to increase radioactive GTP binding when a GPCR is activated. The antagonist activity is evaluated according to the ability to counteract the increased [^35S]GTPγS binding induced by the LTC4 reference agonist.
The activation of GPCRs by agonists stimulates the dissociation of GDP from G-protein, thus increasing GTP binding in its place. This increase in GTP binding to G-protein can be quantified in vitro with [^35S]GTPγS. The effect of GPCR activation on [^35S]GTPγS binding is catalytic, because it increases the [^35S]GTPγS binding rate rather than [^35S]GTPγS binding equilibrium. […] For some GPCRs, the binding stimulated by the agonist (ie. the difference between GTP binding in the presence and absence of the agonist) increases with time, peaks and then falls to zero; optimal increases in [^35S]GTPγS binding induced by the agonist are often obtained before equilibrium is attained, rather than at equilibrium. […] The control and transfected cells were homogenised in 5 mM Tris-HCl and 2 mM EDTA (pH 7.4) and centrifuged at 48000 g for 15 min at 4° C. The resulting pellets (plasma membranes) were washed in 50 mM Tris-HCl and 10 mM MgCl2 (pH 7.4) and stored at −80° C. until use.
The Graph-Pad Prism program was used for the analysis and graphic presentation of the [^35S]GTPγS binding data. All the data are shown as the mean±SEM of three different experiments. The data were tested for statistical significance with the paired Student's t test or analysis of variance (one-way ANOVA), as appropriate. When significant differences were observed, the Newman-Keuls multiple comparison test (one-way ANOVA) was performed. A value of P<0.05 was considered significant.
A general note: GTPγS is a poorly hydrolysed GTP analogue; its binding reports G protein activation.

A short description of test [1]: [35S]GTPγS binding assay on 1321N1 cells transfected only with control vector pcDNA3.1. The note with it: cells transfected only with pcDNA3.1. It is filed as biochemical, human. How it is done: Human 1321N1 cells were cultured as described [Fumagalli et al., 2004, Biochem Pharmacol 68:113]. For the [^35S]GTPγS assay, 10^6 1321N1 cells were seeded on 75 cm^2 flasks and transfected by the calcium phosphate precipitation method, with the vector pcDNA3.1 containing the construct encoding for human receptor GPR17, and with the empty vector pcDNA3.1 as control [Fumagalli et al., 2004, Biochem Pharmacol 68:113].
The activation of GPCRs by agonists stimulates the dissociation of GDP from G-protein, thus increasing GTP binding in its place. This increase in GTP binding to G-protein can be quantified in vitro with [^35S]GTPγS. The effect of GPCR activation on [^35S]GTPγS binding is catalytic, because it increases the [^35S]GTPγS binding rate rather than [^35S]GTPγS binding equilibrium. Consequently, the [^35S]GTPγS binding assay is intrinsically a functional concentration-response curve, not an equilibrium binding assay [Lazareno, 1999, Methods Mol Biol 1106:231; Milligan, 2003, Trends Pharmacol Ski 24:87]. For some GPCRs, the binding stimulated by the agonist (ie. the difference between GTP binding in the presence and absence of the agonist) increases with time, peaks and then falls to zero; optimal increases in [^35S]GTPγS binding induced by the agonist are often obtained before equilibrium is attained, rather than at equilibrium. […]

Test [2] concerns oligodendrocyte precursor cells (OPCs). Nature of the test: Pro-myelinating activity assay on oligodendrocyte precursor cell (OPC) cultures (MBP-positive cells). In kind it is cell-based, Sprague-Dawley rat. The note with it: 48 h after start of treatment.
Procedure: The OPCs were cultured on plates containing 24 mm slides coated with poly-D,L-ornithine in Neurobasal medium with 2% of B27 supplement (Invitrogen), L-glutamine (2 mM) and enriched with growth factors PDGF and betaFGF (10 ng/ml) to promote proliferation. In order to promote differentiation, after 24 h, the culture medium was replaced with Neurobasal with 2% B27 without growth factors and with the addition of triiodothyronine T3 (400 ng/ml).
The ability of the agonists to promote myelination was evaluated by measuring the increase in the number of cells positive for the MBP marker present in the culture compared with the control treated with the carrier alone. In particular, 48 h after treatment with the agonists, the cells were fixed in 4% paraformaldehyde in 0.1 M PBS and stained by immunocytochemistry using an antibody specific for MBP. […] The slides were mounted with Dako Fluorescent Mounting Medium (Dako, Milan) on cover slips and analysed with an inverted optical microscope (AXIOVERT 200 M, Zeiss, Milan). The images were processed and acquired with Axiovision 4.4 software, in the rhodamine fluorescence channel for MBP. The effects of the treatments on OPC myelination were quantified by manual count using ImageJ software (Wayne Rasband, Research Services Branch of the National Institute of Mental Health of Bethesda, USA).

Marks after values point to notes of the source that are not given here.

T1 sequence (Q13304 29-367 limits assumed): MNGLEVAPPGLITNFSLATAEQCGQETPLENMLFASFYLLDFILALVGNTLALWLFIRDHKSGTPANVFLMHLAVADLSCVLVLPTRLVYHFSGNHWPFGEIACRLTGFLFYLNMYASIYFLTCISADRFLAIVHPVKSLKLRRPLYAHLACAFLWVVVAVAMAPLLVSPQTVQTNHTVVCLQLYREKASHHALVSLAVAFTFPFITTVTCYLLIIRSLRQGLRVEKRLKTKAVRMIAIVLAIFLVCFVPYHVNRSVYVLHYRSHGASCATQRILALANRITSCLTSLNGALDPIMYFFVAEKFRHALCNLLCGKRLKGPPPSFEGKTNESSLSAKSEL

What is called EC50 is the midpoint of the concentration-response curve. Read a high EC50 as a need for much substance. As to `COc1ccc(-n2c(SC(C)C(=O)Nc3ccccc3)nnc2-c2ccccc2OC)cc1` (centres unmarked) [(I), 2-[[5-(2-methoxyphenyl)-4-(4-methoxyphenyl)-4H-1,2,4-triazol-3-yl]thio]-N-phenylpropanamide], at human receptor GPR17, a half-maximal effect (EC50) was put at 0.109 ± 0.028 nM; the Emax is on record as 145.6 ± 5.7; the “% Emax vs standard” value was determined as 100.6%; the “effect of antagonist on concentration-response curve of the compound” value is recorded as “shifted to the right (increase in EC50), but no effect on efficacy was observed”. Moreover, the “effect of antagonist on concentration-response curve of the compound” value at human receptor GPR17 (listed as I) is given as “reduction in the efficacy”.
Consider `COCCn1nnnc1C(c1cc2cc(OC)ccc2[nH]c1=O)N(CCc1ccccc1)Cc1ccccc1` (centres unmarked) [(II), 6-methoxy-3-[[1-(2-methoxyethyl)-1H-tetrazol-5-yl][(2-phenylethyl)(phenylmethyl)-amino]methyl]-2(1H)-quinolinone], for which, on human receptor GPR17, the EC50 is 3.67 ± 0.51 nM, the Emax is 206.8 ± 8.3 and the “% Emax vs standard” value was 142.8*** %.
`COc1ccc(N(C(=O)Cn2nnc3ccccc32)C(C(=O)NCC2CCCO2)c2ccc(F)cc2)cc1` (centres unmarked) [(IV), N-[1-(4-fluorophenyl)-2-oxo-2-[[(tetrahydro-2-furanyl)methyl]amino]ethyl]-N-(4-methoxyphenyl)-1H-benzotriazol-1-acetamide]: on human receptor GPR17, a half-maximal response (EC50) required 2.27 ± 0.07 nM, the Emax turned out to be 173.5 ± 0.5 and the “% Emax vs standard” value was 119.8*** %.
`O=C(Nc1ccc(C(F)(F)F)cc1)N1CCC(c2nc(O)c3nnn(Cc4ccccc4Cl)c3n2)CC1` [(V), 4-[3-[(2-chlorophenyl)methyl]-6,7-dihydro-7-oxo-3H-1,2,3-triazole[4,5-d]pyrimidin-5-yl]-N-[4-(trifluoromethyl)phenyl]-1-piperidinecarboxamide]: at human receptor GPR17, it took 0.268 ± 0.009 nM to reach a half-maximal effect (EC50), the Emax worked out at 161.5 ± 2.4 and the “% Emax vs standard” value was 111.5** %.
Consider `CCCCC/C=C\C\C=C/C=C/C=C/[C@@H](SC[C@H](NC(=O)CC[C@H](N)C(=O)O)C(=O)NCC(=O)O)[C@@H](O)CCCC(=O)O` [LTC4, reference compound], for which, at human receptor GPR17, the Emax was determined as 144.8 ± 0.4 and the “% Emax vs standard” value was 100%. For the same compound, the “response in [35S]GTPγS binding in control-vector cells” value in test [1] is “unable to induce a response”.
Regarding `CCCCC/C=C\C\C=C/C=C/C=C/[C@@H](SC[C@H](N)C(=O)O)[C@@H](O)CCCC(=O)O` [LTE4], in test [2], the “pro-myelinating activity, in words (mature cells expressing MBP)” value is listed as “increase the number of mature cells in culture expressing MBP”.
Still for that read-out and setting: for `O=c1ccn([C@@H]2O[C@H](COP(=O)(O)OP(=O)(O)O)[C@@H](O)[C@H]2O)c(=O)[nH]1` [UDP] the value was “increase the number of mature cells in culture expressing MBP”.
`CSCCNc1nc(SCCC(F)(F)F)nc2c1ncn2[C@@H]1O[C@H](COP(=O)(O)OP(=O)(O)C(Cl)(Cl)P(=O)(O)O)[C@@H](O)[C@H]1O` [cangrelor, reference compound]: the “type of antagonism on concentration-response curves of compound of formula (I)” value on human receptor GPR17 (curves of compound (I) in presence of different concentrations of the antagonist (FIG. 1 C, D)) is “competitive antagonist”.

These data come from US20150094348A1, “GPR17-MODULATING COMPOUNDS, DIAGNOSTIC AND THERAPEUTIC USES THEREOF” (Centro Cardiologico Monzino S.p.A., priority 2010, published 2015).
